Read-outs that look alike come from different tables or passages of the source.
Experiments:
[1] = Determination of toxicity (lethal action on the mouse after intraperitoneal application); type: in vivo; settings: in vivo, ip
Procedure: The toxicity investigations are carried out on female NMRI mice (body weight 22 to 26 g). The animals (5 animals per dose) are given food and water ad lib. Different doses of the substances are administered intraperitoneally. The duration of observation is 14 days. The LD50, i.e. the dose at which 50% of the animals die, is determined graphically from the dose/effect curve.

bile secretion = experiment: Influence on bile secretion (choleresis) of the narcotized rat; type: in vivo, rat (male Sprague-Dawley); settings: 0.5 h; narcotized rat, i.d.; liquid volume, 30 min fraction; Table II; read-out: ED50 bile secretion (dose which brings about an increase in the bile secretion by a maximum of 50%)
Excerpt: (§1) Male Sprague-Dawley rats (body weight from 250 to 300 g) are narcotized with 1.2 g/kg urethane i.m. Then the abdominal cavity is opened medially, the bile duct is ligatured shortly above the place where it leads into the duodenum and also near to the hepatic duct, and both sections are catheterized towards the liver.
(§2) As in the rat all the pancreatic ducts lead out into the central section of the bile duct; it is possible in this way to discharge the pancreatic secretion separately from the distal (ligatured) section and the bile separately from the proximal section of the bile duct.
(§3) The quantities of pancreatic juice and bile juice obtained are measured at intervals of 30 minutes over a period from 2 hours before to 3 hours after the intraduodenal (V. jugularis externa) administration of the compounds to be tested (quantity of liquid administered 5 ml/kg).
(§4) The body temperature of the animals is maintained at 36° to 38° C. by means of electric blankets and radiation; the temperature is monitored rectally.
(§5) The liquid volumes of the 30-minute fractions after the administration of the substance are related in each case to the quantity of bile or pancreatic juice secreted prior to the application of the substance (=100%, mean of the last two measurements). The maximum percentage increase in the pancreatic or bile secretion is represented in dependence upon dose, and from this the ED50 is determined by interpolation.

[2] = as above; type: in vivo, rat (male Sprague-Dawley); settings: in vivo; LD50 mouse i.p. / ED50 rat i.d.; Table II; read-out: TQ (LD50/ED50), bile secretion
Excerpt: as §1, §2, §3, §4, §5

stomach ulcer = experiment: Antiulcerogenic (stomach-protective) action, pylorus ligature and acetylsalicylic acid; type: in vivo, rat (female); settings: 4 h, rat, intraduodenally, read-out: ED50 antiulcerogenic action (dose which reduces the mean ulcer index by 50%)
Procedure: (§6) The ulcer provocation is carried out on rats which have been made to fast for 24 hours (female, 180 to 200 g) by ligature of the pylorus (under ether narcosis) and the oral application of 100 mg/10 ml/kg acetylsalicylic acid. The administration of the substances was carried out intraduodenally (2.5 ml/kg) immediately after the ligature of the pylorus. The closure of the wound was carried out by means of Michel clamps. 4 hours after this, the animals were autopsied (while inebriated with ether) by dislocation of the atlas, and the stomach was resected. The stomach, opened longitudinally, is fixed on a cork board and, using a stereomicroscope with an enlargement of 10×, the number and size (=diameter) of any ulcers present were determined. The product of the degree of severity (according to the following scale of points) and the number of ulcers was used as the individual ulcer index.
(§7) As a measure of antiulcerogenic effect the reduction in the mean ulcer index of each treated group, as compared with that of the control group (=100%), was used.

[3] = as above; type: in vivo, rat (female); settings: in vivo, LD50 mouse i.p. / ED50 rat i.d.
Procedure: as §6, §7

liver damage by CCl4 = experiment: Antihepatotoxic effect: duration of hexobarbital sleep of the rat after liver damage by CCl4; settings: Rattus norvegicus, po; for ED25: read-out: ED25 antihepatotoxic effect (shortens hexobarbital narcosis by 25%); for ED50: read-out: ED50 antihepatotoxic effect (shortens hexobarbital narcosis by 50%)
Procedure: (§8) The compounds to be tested are administered 1 hour prior to the administration of CCl4 orally in a liquid volume of 10 ml/kg.
(§9) The antihepatotoxic effect of the compounds to be tested (sodium salts in aqueous solution) is determined by the reduction of the prolongation of sleeping period caused by the CCl4 liver cell damage in the groups treated, as compared with the prolongation of the sleeping period of the CCl4 control group (=100%). […]

[4] = as above; settings: rat, in vivo
Procedure: as §8, §9

pancreatic secretion = experiment: Influence on pancreatic secretion of the narcotized rat; type: in vivo, rat (male Sprague-Dawley); settings: 0.5 h, narcotized rat, i.d., liquid volume
Excerpt: as §1, §2, §3, §4, §5

[5] = as above; type: in vivo, rat (male Sprague-Dawley); settings: in vivo, LD50 mouse i.p. / ED50 rat i.d.
Excerpt: as §1, §2, §3, §4, §5

[6] = system: glucose formation from lactate and pyruvate in isolated perfused liver; experiment: Inhibition of the formation of glucose from lactate and pyruvate in the isolated perfused rat liver; parameters: species or system rat (male Sprague-Dawley); settings: Table VIII; for Glucose formation, % change: 0.2 mmole/liter in the perfusate, isolated perfused liver of fasting rats; for ED50 inhibition of formation of glucose from lactate and pyruvate: from 4 concentrations, 0.02 to 1.00 mmol/liter
Procedure: For this purpose young male Sprague-Dawley rats (160 to 200 g) are used. The rats are kept in cages of up to 5 animals in a temperature-controlled room (23° C.) with a fixed day/night rhythm (12/12 hours).
Food is withheld from the animals for from 20 to 22 hours prior to the operation. They are allowed to take water ad lib. The operation and the perfusion of the liver are carried out using the technique of R. Scholz et al. [Eur. J. Biochem. 38 (1973) 64 to 72]. The perfusion liquid used is Krebs-Henseleit bicarbonate buffer (pH 7.4), which is saturated with an oxygen/carbon dioxide mixture (95/5) and contains 1.6 mmol/liter of L-lactate and 0.2 mmol/liter of pyruvate. The perfusion liquid is pumped into the liver via a cannula inserted into the portal vein. The effluent perfusion liquid is collected via a cannula inserted into the Vena cava. The liver is perfused for about 2 hours. The test compounds are infused for 16 minutes each from the 32nd to the […] after the perfusion in increasing concentrations (0.02 to 1.00 mmol/liter).
Samples of the effluent perfusion liquid are collected at one-minute intervals and analyzed for glucose, lactate and pyruvate (using standard enzymatic methods). The percentages shown in Table VIII relate to the condition occurring before and after the administration of the compounds, the changes caused solely by lactate and pyruvate being set as being equal to 100%.

[7] = Table IV, read-out: TQ (LD50/ED50), antiulcerogenic action
[8] = TQ LD50/ED25, antihepatotoxic effect, LD50 mouse i.p. / ED25 rat p.o., Table V
[9] = TQ LD50/ED50, antihepatotoxic effect, LD50 mouse i.p. / ED50 rat p.o., Table V
[10] = 30 min fraction, Table VII, read-out: ED50 pancreatic secretion (dose which brings about an increase in pancreatic secretion of a maximum of 50%)
[11] = Table VII, read-out: TQ [LD50/ED50], pancreatic secretion
[12] = Table IX, read-out: TQ LD50/ED50, antiulcerogenic action
[13] = 30 minute fraction, Table X, read-out: ED50 pancreatic secretion (dose which brings about an increase in pancreatic secretion by a maximum of 50%)
[14] = Table X, read-out: TQ LD50/ED50, pancreatic secretion
[15] = TQ LD50/ED25, antihepatotoxic effect, LD50 mouse i.p. / ED25 rat p.o., Table XI

SMILES: CC(C)(C)N(CCCC(=O)O)C(=O)c1ccc(Cl)cc1 [Serial No. 2, N-(p-chloro)benzoyl-4-(tert.-butylamino)butyric acid]
- LD50 at 336 h ([1]; mouse, Table II): 850 mg/kg
- ED50 (bile secretion): 15 mg/kg
- selectivity ratio [2]: 57

SMILES: C#CC(CC)(CC)N(CCCC(=O)O)C(=O)c1ccc(Cl)cc1 [Serial No. 4, N-(p-chloro)benzoyl-4-[(3-ethyl-1-pentyn-3-yl)amino]butyric acid]
- LD50 at 336 h ([1]; mouse, Table II): 200 mg/kg
- ED50 (bile secretion): ~5 mg/kg
- selectivity ratio [2]: ~40

SMILES: O=C(O)CCCN(C(=O)c1ccc(Cl)cc1)c1ccc(-c2ccccc2)cc1 [Serial No. 23, 4-[p-chloro-N-(biphenyl-4-yl)benzamido]butyric acid]
- ED50 (stomach ulcer; Table IV): ~15 mg/kg
- selectivity ratio [3, 7]: ~8
- LD50 at 336 h ([1]; mouse, Table IV): 120 mg/kg
- ED25 (liver damage by CCl4): 15 mg/kg
- ED50 (liver damage by CCl4): 22 mg/kg
- selectivity ratio [4, 8]: 8
- selectivity ratio [4, 9]: 5.5
- ED50 (pancreatic secretion; [10]): 1 mg/kg
- selectivity ratio [5, 11]: 120

SMILES: O=C(O)CCCCCN(C(=O)c1ccc(Cl)cc1)c1ccccc1-c1ccccc1 [Serial No. 24, 6-[p-chloro-N-(biphenyl-2-yl)benzamido]caproic acid]
- ED50 (stomach ulcer; Table IV): ~40 mg/kg
- selectivity ratio [3, 7]: ~3.3
- LD50 at 336 h ([1]; mouse, Table IV): 130 mg/kg
- ED25 (liver damage by CCl4): ~9 mg/kg
- ED50 (liver damage by CCl4): 14 mg/kg
- selectivity ratio [4, 8]: ~14.4
- selectivity ratio [4, 9]: 9.3
- Glucose formation, % change [6]: -99%
- ED50 inhibition of formation of glucose from lactate and pyruvate [6]: 23 µg/mL

SMILES: O=C(O)CCCN(C(=O)c1cccc(C(F)(F)F)c1)c1ccccc1-c1ccccc1 [Serial No. 25, 4-[m-trifluoromethyl-N-(biphenyl-2-yl)benzamido]butyric acid]
- ED50 (stomach ulcer; Table IV): 10 mg/kg
- selectivity ratio [3, 7]: 11
- LD50 at 336 h ([1]; mouse, Table IV): 110 mg/kg
- ED25 (liver damage by CCl4): 10 mg/kg
- ED50 (liver damage by CCl4): 30 mg/kg
- selectivity ratio [4, 8]: 11
- selectivity ratio [4, 9]: 3.7
- Glucose formation, % change [6]: -77%
- ED50 inhibition of formation of glucose from lactate and pyruvate [6]: 34 µg/mL
- ED50 (pancreatic secretion; [10]): 1 mg/kg
- selectivity ratio [5, 11]: 110

SMILES: O=C(O)CCCN(C(=O)c1ccc(F)cc1)c1ccccc1-c1ccccc1 [Serial No. 26, 4-[p-fluoro-N-(biphenyl-2-yl)benzamido]butyric acid]
- ED50 (stomach ulcer; Table IV): ~55 mg/kg
- selectivity ratio [3, 7]: ~3.8
- LD50 at 336 h ([1]; mouse, Table IV): 210 mg/kg
- ED25 (liver damage by CCl4): 1.6 mg/kg
- ED50 (liver damage by CCl4): 2.8 mg/kg
- selectivity ratio [4, 8]: 131
- selectivity ratio [4, 9]: 75
- Glucose formation, % change [6]: -51%
- ED50 inhibition of formation of glucose from lactate and pyruvate [6]: 76 µg/mL
- ED50 (pancreatic secretion; [10]): 2.5 mg/kg
- selectivity ratio [5, 11]: 84

SMILES: O=C(O)CCCN(C(=O)c1ccc(Cl)cc1)c1ccccc1-c1ccccc1 [Serial No. 31, 4-[p-chloro-N-(biphenyl-2-yl)benzamido]butyric acid]
- ED50 (stomach ulcer; Table IV): 35 mg/kg
- selectivity ratio [3, 7]: 5.1
- LD50 at 336 h ([1]; mouse, Table IV): 180 mg/kg
- ED25 (liver damage by CCl4): < 1 mg/kg
- ED50 (liver damage by CCl4): 3.5 mg/kg
- selectivity ratio [4, 8]: > 180
- selectivity ratio [4, 9]: 51.4
- Glucose formation, % change [6]: -79%
- ED50 inhibition of formation of glucose from lactate and pyruvate [6]: 43 µg/mL
- ED50 (pancreatic secretion; [10]): 1 mg/kg
- selectivity ratio [5, 11]: 180

SMILES: CCOc1ccc(N(CCCC(=O)O)C(=O)c2ccc(Cl)cc2)c2ccccc12 [Serial No. 43, 4-{p-chloro-[N-(4-ethoxy-1-naphthyl)]benzamido}butyric acid]
- ED50 (stomach ulcer; Table IX): 10 mg/kg
- selectivity ratio [3, 12]: 7
- LD50 at 336 h ([1]; mouse i.p., Table IX): 70 mg/kg
- ED50 (pancreatic secretion; [13]): 0.7 mg/kg
- selectivity ratio [5, 14]: 100

SMILES: CC(CCC(=O)O)N(C(=O)c1ccc(Cl)cc1)c1cccc2ccccc12 (stereo not drawn) [Serial No. 45, 4-{p-chloro-[N-(α-naphthyl)]benzamido}valeric acid]
- ED50 (stomach ulcer; Table IX): < 10 mg/kg
- selectivity ratio [3, 12]: > 18
- LD50 at 336 h ([1]; mouse i.p., Table IX): 180 mg/kg
- ED25 (liver damage by CCl4): ~15 mg/kg
- selectivity ratio [4, 15]: ~12
- ED50 (pancreatic secretion; [13]): ~1 mg/kg
- selectivity ratio [5, 14]: ~180

SMILES: CCC(=O)N(CCCC(=O)O)C1CCCc2cc(OC)ccc21 (stereo not drawn) [compound 52]
- ED50 (stomach ulcer; Table IX): < 10 mg/kg
- selectivity ratio [3, 12]: > 20
- LD50 at 336 h ([1]; mouse i.p., Table IX): > 200 mg/kg
- ED50 (pancreatic secretion; [13]): < 1 mg/kg
- selectivity ratio [5, 14]: > 200

SMILES: O=C(O)CCCN(C(=O)c1ccc(Cl)c(Cl)c1)c1ccc2c(c1)CCC2 [compound 53]
- ED50 (stomach ulcer; Table IX): < 10 mg/kg
- selectivity ratio [3, 12]: > 18
- LD50 at 336 h ([1]; mouse i.p., Table IX): 180 mg/kg
- ED25 (liver damage by CCl4): 10 mg/kg
- selectivity ratio [4, 15]: 18
- ED50 (pancreatic secretion; [13]): < 1 mg/kg
- selectivity ratio [5, 14]: > 180

Reference: patent US4243678A, “Acylhydrocarbylaminoalkanoic acids, compositions and uses” (Byk Gulden Lomberg Chemische Fabrik GmbH, priority 1977, dated 1981)
